# Laboratory results as given in patent US20200253979A1, “THERAPEUTIC METHODS RELATING TO HSP90 INHIBITORS” (AI Therapeutics, Inc., priority 2017, published 2020).
# Read-outs that look alike come from different tables or passages of the source.
# Key:
# [1] = system: MOLM-13 FLT3-ITD AML cell line; test: Systemic survival xenograft study, MPC-0767 with 5′azacitidine; conditions: single agents: MPC-0767 75 mg/kg p.o.; 5′azacitidine 2 mg/kg QD×4 i.p.; vs vehicle
# Description: A systemic survival xenograft study was performed using the MOLM-13 FLT3-ITD harboring AML cell line.
# Before tumor cell inoculation, NOD/SCID mice were pre-treated for 2 days with a daily intraperitoneal injection of 100 mg/kg cyclophosphamide to facilitate engraftment of the human MOLM-13 tumor cells. After the injection of cyclophosphamide, the animals were allowed to recover for 24 hours prior to inoculation with human MOLM-13 tumor cells. Each mouse was then inoculated with 1×10^7 MOLM-13 cells in 100 μL PBS via intravenous tail vein injection. Mice were next randomized into 4 groups of 6 mice each. […] Viability and body weight loss were monitored daily.
# MV-4-11 cells (FLT3-ITD) = test: CellTiter-Glo cell viability (single agent and combination); format: cell-based; conditions: MV-4-11, 72 hours, average CI
# Description: (§1) Three cell lines which harbor FLT3-ITD were used for the drug combination studies (MV-4-11, MOLM-13, and MOLM-14).
# (§2) Cells were treated with the drugs (single agent or combination) for 72 hours. Drug combination activity was determined by first measuring cell viability with CellTiter-Glo®, followed by the calculation of the EC50 corresponding to single agent activity, using the R DRC package (R Core Team, 2017). The combination index (CI) values were computed using the Chou-Talalay method (Chou T, Cancer Research., 2010 70(2): 440-6.), based on the viability of each drug alone and in combination, across all concentrations tested. In brief, CI was defined as: […]
# (§3) Loss of function mutations of KDM6A are observed in FLT3-ITD AML (Garg et al., 2015 Blood 126 (22):2491-501). […] To therapeutically exploit this finding, we hypothesized that inhibiting EZH2, the histone H3K27 methyltransferase that functionally opposes KDM6A, would enhance sensitivity to MPC-0767. To test this hypothesis, a FLT3-ITD cell line (MV-4-11) was used and treated with either of the two clinical stage EZH2 inhibitors, EPZ-6438 and CPI-1205, at 8 different concentrations for 4 days. Following this time, cells were counted, reseeded and treated with 8 concentrations of EZH2 inhibitor alone, 8 concentrations of MPC-0767 alone, or the combination of the two (64 total combinations).
# MOLM-14 cells (FLT3-ITD) = test: as above; format: cell-based; conditions: for combination index (CI) of AML drug in combination with MPC-0767: MOLM-14, 72 hours, average CI (* n=1); for IC50: Homo sapiens, MOLM-14, 72 h, 72 hours, read-out: EC50 (cell viability)
# Description: HS-5 is a human marrow stromal cell line that secretes various growth factors sufficient to support hematopoietic progenitor growth (Roecklein et al., Blood, 1995) which thus mimics stromal conditions.
# as §1, §2, §3
# [2] = cited from earlier work
# MOLM-13 cells (FLT3-ITD) = test: CellTiter-Glo cell viability (combination); format: cell-based, human; conditions: MOLM-13, 72 hours, average CI
# Description: as §1, §2
# [3] = system: BaF3 cells harboring FLT3-ITD F691L; test: CellTiter-Glo cell viability; format: cell-based, murine
# Description: (§4) EC50 values were calculated using equation 1 (as described above).
# [4] = system: MOLM-13-R-PKC412 (midostaurin-resistant) cells; test: CellTiter-Glo cell viability; format: cell-based, human
# From the text: (§5) In the clinic, tyrosine kinase inhibitors that target FLT3 initially show positive responses, but patients inevitably relapse due to the development of drug-resistance through various mechanisms, as discussed above.
# [5] = system: BaF3 cells harboring FLT3-ITD; test: CellTiter-Glo cell viability; format: cell-based, murine; conditions: Mus musculus, 72 hours
# Description: After this time cell viability was determined using CTG and EC50 values determined.
# as §4
# BaF3 cells require the supplementation of IL-3 to activate the IL-3 receptor for growth. However, in BaF3 cells transfected with FLT3-ITD, cells no longer require IL3 as survival is solely driven by oncogenic FLT3 signaling.
# MOLM-13-LUC cells = test: CellTiter-Glo cell viability; format: cell-based; conditions: Homo sapiens, 72 hours
# From the text: as §5
# [6] = system: phospho-ERK (pERK) in MOLM-13 cells; test: Phospho-ERK level; format: cell-based, human; conditions: MPC-0767 800 nM, ATO 625 nM or combination, 24 hours
# From the text: (§6) We next explored whether the synergistic activity of MPC-0767 and ATO was due to a more complete abrogation of FLT3-ITD oncogenic signaling. […] After this time cells were harvested for the assessment of cell surface FLT3 expression by flow cytometry. To additionally measure the effects of abrogating FLT3, we assessed phospho-ERK (pERK) and phospho-S6 (pS6), as these are two known downstream effectors.
# [7] = system: cell surface FLT3 in MOLM-13 cells; test: Cell surface FLT3 by flow cytometry; format: cell-based, human; conditions: MOLM-13; MPC-0767 800 nM, ATO 625 nM or combination; 24 hours
# Description: (§7) To determine whether MPC-0767 can promote the degradation of FLT3-ITD and abolish downstream signaling, MV-4-11 and MOLM-13 cells were treated with vehicle or MPC-0767 (1 μM) for 24 hours. Cells were harvested for flow cytometry to assess cell surface FLT3 protein abundance. In addition, the measurement of a key phosphorylation site of S6 (phospho-S6) was used as a marker for oncogenic FLT3-ITD signaling (Zimmerman et al., Blood. 2013 122(22): 3607-3615). Indeed, in both MV-4-11 and MOLM-13 cells treated with MPC-0767 there was a >65% reduction in cell surface FLT3 (FIGS. 10A and 10B, respectively) and >70% reduction in phospho-S6 (FIGS. 10C and 10D, respectively).
# as §6
# [8] = system: phospho-S6 in MOLM-13 cells; test: Phospho-S6 by flow cytometry; format: cell-based, human; conditions: MOLM-13; MPC-0767 800 nM, ATO 625 nM or combination; 24 hours
# Description: as §7, §6
# [9] = system: PD-1+ Jurkat reporter cells with THP-1 AML cells; test: Jurkat NFAT-luciferase reporter T cell activation with THP-1 cells; format: cell-based; conditions: THP-1 treated 24 hr with IFNγ 50 ng/ml; PD-L1 blocking antibody added
# From the text: The addition of antibodies that block the PD-1/PD-L1 pathway stimulate an increased T cell response in vitro, in pre-clinical animal models, and in cancer patients. This can lead to tumor regressions or tumor clearance in patients. To examine MPC-0767 effects on PD-L1 and T cell activation, we used a model system in which PD-1+ Jurkat T cells express luciferase under the control of the NFAT promoter (Promega, hereafter referred to Jurkat reporter cells). When T cells are stimulated through the T cell receptor (TCR), activation of the NFAT pathway drives expression of luciferase.
# We next determined whether MPC-0767 reduction of PD-L1 could increase T cell stimulation similar to anti-PD-L1 blocking antibodies. THP-1 cells were treated overnight with IFNγ in the presence or absence of MPC-0767 (1 μM or 2 uM). THP-1 cells were washed and a portion saved for flow cytometry analysis of PD-L1 expression. The remaining cells were incubated with Jurkat reporter cells and anti-CD3 (10 ng/ml) for 6 hours.
# [10] = MOLM-14, stromal media (HS-5 conditioned)
compound,measurement,setting,value
"Nc1ncn([C@@H]2O[C@H](CO)[C@@H](O)[C@H]2O)c(=O)n1 [5′azacitidine, reference compound]",increase in median survival,[1],8 days
"Nc1ccn([C@@H]2O[C@H](CO)[C@@H](O)[C@@H]2O)c(=O)n1 [Cytarabine, cytarabine]",combination index (CI) of AML drug in combination with MPC-0767,MV-4-11 cells (FLT3-ITD),CI = 0.8
same,combination index (CI) of AML drug in combination with MPC-0767,MOLM-14 cells (FLT3-ITD),CI = 0.9*
"C[C@H](O)C(=O)N1CCC(CCn2c(Sc3cc4c(cc3Br)OCO4)nc3c(N)ncnc32)CC1 [MPC-3100, (2S)-1-[4-(2-{6-Amino-8-[(6-bromo-1,3-benzodioxol-5-yl)sulfanyl]-9H-purin-9-yl}ethyl)piperidin-1-yl]-2-hydroxypropan-1-one, reference compound]",aqueous solubility,[2],poor solubility
"CNC(=O)c1cc(Oc2ccc(NC(=O)Nc3ccc(Cl)c(C(F)(F)F)c3)cc2)ccn1 [Sorafenib, sorafenib]",combination index (CI) of AML drug in combination with MPC-0767,MV-4-11 cells (FLT3-ITD),CI = 0.8
"CC1(C)CCC(CN2CCN(c3ccc(C(=O)NS(=O)(=O)c4ccc(NCC5CCOCC5)c([N+](=O)[O-])c4)c(Oc4cnc5[nH]ccc5c4)c3)CC2)=C(c2ccc(Cl)cc2)C1 [Venetoclax, venetoclax]",combination index (CI) of AML drug in combination with MPC-0767,MV-4-11 cells (FLT3-ITD),CI = 0.7
same,combination index (CI) of AML drug in combination with MPC-0767,MV-4-11 cells (FLT3-ITD); listed as venetoclax,0.7
same,combination index (CI) of AML drug in combination with MPC-0767,MOLM-13 cells (FLT3-ITD),CI = 0.3
same,combination index (CI) of AML drug in combination with MPC-0767,MOLM-13 cells (FLT3-ITD); listed as venetoclax,0.3
same,combination index (CI) of AML drug in combination with MPC-0767,MOLM-14 cells (FLT3-ITD),CI = 0.6
CC1(COc2ccc3c(c2)ncn3-c2ccc3cccc(N4CCC(N)CC4)c3n2)COC1 [crenolanib],combination index (CI) of AML drug in combination with MPC-0767,MV-4-11 cells (FLT3-ITD),CI = 0.7
same,"fold resistance, FLT3-ITD-F691L vs FLT3-ITD","[3]; BaF3, 72 hours",approximately 23 fold
same,EC50,"[3]; Mus musculus, BaF3 FLT3-ITD-F691L, 72 hours",90 nM
same,EC50,"[4]; Homo sapiens, MOLM-13-R-PKC412, 72 hours",25 nM
same,"fold difference in EC50, midostaurin-resistant vs control cells",[4]; MOLM-13-R-PKC412 vs MOLM-13-LUC,approximately 3 fold
same,combination index (CI) of AML drug in combination with MPC-0767,MOLM-13 cells (FLT3-ITD),CI = 0.9
same,EC50,[5],4 nM
same,EC50,MOLM-13-LUC cells,9 nM
same,IC50,"MOLM-14 cells (FLT3-ITD); MOLM-14, non-stromal media",3 nM
same,IC50,MOLM-14 cells (FLT3-ITD); [10],> 100 nM
CCc1nc(C(N)=O)c(Nc2ccc(N3CCC(N4CCN(C)CC4)CC3)c(OC)c2)nc1NC1CCOCC1 [gilteritinib],combination index (CI) of AML drug in combination with MPC-0767,MOLM-13 cells (FLT3-ITD),CI = 0.9
same,IC50,"MOLM-14 cells (FLT3-ITD); MOLM-14, non-stromal media",6 nM
same,IC50,MOLM-14 cells (FLT3-ITD); [10],> 100 nM
"arsenic trioxide [ATO, reference compound]",pERK level,[6],mildly reduced
same,FLT3 level (cell surface),[7],reduced
same,pS6 level,[8],reduced
atezolizulmab: PD-L1 blocking antibody,T cell activation (luciferase),[9],restores T cell activation to untreated levels
